Test results as given in patent publication US20240216401A1, “COMBINATION THERAPY BY USING AKR1C3-ACTIVATED COMPOUND WITH IMMUNE CHECKPOINT INHIBITOR” (OBI Pharma, Inc., priority 2021, published 2024).
Values joined by “and” are separate entries in the source; they are usually repeats but may differ in a detail not shown here. Equal values may be shown once.

How the values were obtained:
[1] = Example 2: body weight of HepG2 tumor bearing humanized mice; type: in vivo, Mus musculus; details: for Body Weight: individual animal; for Body Weight (g) Mean: group mean
Experimental: 1. Species: Mus musculus • Strain: Advanced immunodeficiency mouse. • (NOD.CgPrkdc^scid Il2rg) • Source: Trineo Biotechnology Co., LTD.
Each group contains six mice. The human hepatocellular carcinoma cell line HepG2 were subcutaneously inoculated to the advanced immune-deficiency mice. Total of 42 mice were included in this study.
3.1. […] The injection was performed using insulin syringe with the dosage of 0.3 mg/kg or 1 mg/kg and the injection volume was 5 mL/kg. […] The reference item was administered for G1. The procedure followed the standards of sample administration. The starting day of test item administration was denoted as the first experimental day (DO).
3.2. […] The injection was performed using insulin syringe with the dosage of 20 mg/kg and injection volume of 10 mL/kg. […] The procedure followed the standards of sample administration.
The measurement was performed from the next day of the inoculation. The animal body weights were measured and recorded twice per week.

[2] = tested on: NK cells in tumor-infiltrating lymphocytes; experiment: Example 2: flow cytometry, percentage of NK cells in TILs; type: in vivo, Mus musculus; details: individual animals and Mean
Experimental: Mice were sacrificed by CO2 euthanasia at the end of the study duration, and the connective tissue around tumor was resected. The tumor samples were then weighed and cut equally into three sections if the tumor weight over 400 mg. The tumor tissue was prepared for the isolation of tumor-infiltrating lymphocytes (TILs). The rest of one section was fixed in 10% formaldehyde and embedded in paraffin; the other was stored at a temperature below −70° C.
The tumor samples were dissected into smaller fragments using scalpels and then digested with a cocktail of collagenase, DNase I, and Hyaluronidase (Collagenase #C5138, DNase I #D5025, Hyaluronidase #H6254, SigmaAldrich) for at least 2 hours.
Cells were stained with the fluorescently conjugated surface antibodies and incubated for 30 minutes at 4° C., and then resuspended in staining buffer for flow cytometric analysis. Flow cytometry was done using a Navios EX Flow Cytometer (Beckman Coulter). Data were analyzed using the Kaluza Analysis Software (Beckman Coulter).

[3] = tested on: preclinical models of T-ALL; details: in vitro and in vivo; references 25, 26; cited from earlier work
[4] = G2: OBI-3424 (0.3 mg/kg), 0.3 mg/kg
[5] = G2: OBI-3424 (0.3 mg/kg), 0.3 mg/kg, mean
[6] = G3: OBI-3424 (1 mg/kg), 1 mg/kg
[7] = G3: OBI-3424 (1 mg/kg), 1 mg/kg, mean

C[C@H](OP(=O)(N1CC1)N1CC1)c1ccc([N+](=O)[O-])c(Oc2cccc(C(=O)N(C)C)c2)c1 [OBI-3424, (S)-1-(3-(3-N,N-dimethylaminocarbonyl)phenoxyl-4-mtrophenyl)-1-ethyl-N,N′-bis(ethylene)phosphoramidate]
Body Weight ([1]; G2: OBI-3424 0.3 mg/kg, D9 after test item administration, 0.3 mg/kg): 20.84 g and 24.58 g | Body Weight ([1]; G2: OBI-3424 0.3 mg/kg, D13 after test item administration, 0.3 mg/kg): 23.96 g and 24.87 g | Body Weight ([1]; G2: OBI-3424 0.3 mg/kg, D16 after test item administration, 0.3 mg/kg): 24.02 g and 24.56 g and 24.17 g | Body Weight ([1]; G2: OBI-3424 0.3 mg/kg, D20 after test item administration, 0.3 mg/kg): 22.00 g and 24.21 g and 23.98 g | Body Weight ([1]; G2: OBI-3424 0.3 mg/kg, D23 after test item administration, 0.3 mg/kg): 23.98 g | Body Weight (g) Mean ([1]; G2: OBI-3424 0.3 mg/kg, D30 after test item administration): 22.06 g | Body Weight ([1]; G2: OBI-3424 0.3 mg/kg, D30 after test item administration, 0.3 mg/kg): 20.17 g and 21.65 g | Body Weight ([1]; G2: OBI-3424 0.3 mg/kg, L0 after tumor cell injection, 0.3 mg/kg): 20.66 g and 23.04 g and 25.00 g | Body Weight ([1]; G2: OBI-3424 0.3 mg/kg, L1 after tumor cell injection, 0.3 mg/kg): 23.02 g | Body Weight (g) Mean ([1]; G2: OBI-3424 0.3 mg/kg, L3 after tumor cell injection): 22.99 g | Body Weight ([1]; G2: OBI-3424 0.3 mg/kg, L7 after tumor cell injection, 0.3 mg/kg): 23.01 g | Body Weight ([1]; G3: OBI-3424 1 mg/kg, D2 after test item administration, 1 mg/kg): 20.20 g and 24.22 g | Body Weight ([1]; G3: OBI-3424 1 mg/kg, D6 after test item administration, 1 mg/kg): 24.90 g | Body Weight ([1]; G3: OBI-3424 1 mg/kg, D9 after test item administration, 1 mg/kg): 22.01 g and 24.85 g | Body Weight ([1]; G3: OBI-3424 1 mg/kg, D13 after test item administration, 1 mg/kg): 25.97 g | Body Weight ([1]; G3: OBI-3424 1 mg/kg, D20 after test item administration, 1 mg/kg): 24.21 g and 25.53 g and 21.98 g | Body Weight (g) Mean ([1]; G3: OBI-3424 1 mg/kg, D23 after test item administration): 24.04 g | Body Weight ([1]; G3: OBI-3424 1 mg/kg, D23 after test item administration, 1 mg/kg): 23.02 g and 25.37 g | Body Weight ([1]; G3: OBI-3424 1 mg/kg, D30 after test item administration, 1 mg/kg): 22.02 g | Body Weight ([1]; G3: OBI-3424 1 mg/kg, L0 after tumor cell injection, 1 mg/kg): 19.46 g | Body Weight ([1]; G3: OBI-3424 1 mg/kg, L3 after tumor cell injection, 1 mg/kg): 20.70 g and 24.21 g and 20.80 g and 24.01 g | Body Weight ([1]; G3: OBI-3424 1 mg/kg, L7 after tumor cell injection, 1 mg/kg): 24.22 g and 25.55 g | NK cells (CD45^+CD56^+) CD45^+ Gated % [2, 4]: 6.33% and 8.78% and 8.87% and 10.05% and 2.25% and 6.70% | NK cells (CD45^+CD56^+) Cell count [2, 4]: 2.30 ×10^5 and 6.67 ×10^5 and 20.68 ×10^5 and 1.46 ×10^5 and 2.47 ×10^5 and 1.84 ×10^5 | NK cells (CD45^+CD56^+) Total % [2, 4]: 1.18% and 3.26% and 3.83% and 6.83% and 1.00% and 2.54% | PD-1^+ NK cells (CD45^+CD56^+PD-1^+) Cell count [2, 4]: 1.65 ×10^5 and 2.21 ×10^5 and 10.85 ×10^5 and 0.31 ×10^5 and 2.17 ×10^5 and 0.83 ×10^5 | PD-1^+ NK cells (CD45^+CD56^+PD-1^+) NK Gated % [2, 4]: 71.96% and 33.17% and 52.46% and 21.08% and 87.65% and 44.79% | PD-1^+ NK cells (CD45^+CD56^+PD-1^+) Total % [2, 4]: 0.85% and 1.08% and 2.01% and 1.44% and 0.88% and 1.14% | NK cells (CD45^+CD56^+) CD45^+ Gated % [2, 5]: 7.16% | NK cells (CD45^+CD56^+) Cell count [2, 5]: 5.90 ×10^5 | NK cells (CD45^+CD56^+) Total % [2, 5]: 3.11% | PD-1^+ NK cells (CD45^+CD56^+PD-1^+) Cell count [2, 5]: 3.00 ×10^5 | PD-1^+ NK cells (CD45^+CD56^+PD-1^+) NK Gated % [2, 5]: 51.85% | PD-1^+ NK cells (CD45^+CD56^+PD-1^+) Total % [2, 5]: 1.23% | NK cells (CD45^+CD56^+) CD45^+ Gated % [2, 6]: 3.99% (2×) and 5.65% and 6.00% and 4.05% and 4.24% | NK cells (CD45^+CD56^+) Cell count [2, 6]: 0.77 ×10^5 and 4.27 ×10^5 and 2.08 ×10^5 and 2.41 ×10^5 and 1.96 ×10^5 and 1.99 ×10^5 | NK cells (CD45^+CD56^+) Total % [2, 6]: 2.64% and 3.38% and 2.95% and 2.44% and 2.63% and 2.46% | PD-1^+ NK cells (CD45^+CD56^+PD-1^+) Cell count [2, 6]: 0.26 ×10^5 and 1.64 ×10^5 and 1.02 ×10^5 and 1.77 ×10^5 (2×) and 1.04 ×10^5 | PD-1^+ NK cells (CD45^+CD56^+PD-1^+) NK Gated % [2, 6]: 34.34% and 38.34% and 48.85% and 73.40% and 53.12% and 88.62% | PD-1^+ NK cells (CD45^+CD56^+PD-1^+) Total % [2, 6]: 0.91% and 1.30% and 1.44% and 1.79% and 1.40% and 2.18% | NK cells (CD45^+CD56^+) CD45^+ Gated % [2, 7]: 4.65% | NK cells (CD45^+CD56^+) Cell count [2, 7]: 2.25 ×10^5 | NK cells (CD45^+CD56^+) Total % [2, 7]: 2.75% | PD-1^+ NK cells (CD45^+CD56^+PD-1^+) Cell count [2, 7]: 1.25 ×10^5 | PD-1^+ NK cells (CD45^+CD56^+PD-1^+) NK Gated % [2, 7]: 56.11% | PD-1^+ NK cells (CD45^+CD56^+PD-1^+) Total % [2, 7]: 1.50% | efficacy against preclinical models of T-ALL (in words) [3]: potent efficacy
